One molecule from ChEMBL document CHEMBL1132529 (Bioorg Med Chem Lett, 1999) can be followed below.

The target in the assay is T1, Neutrophil elastase (Homo sapiens, UniProt P08246).
T1 sequence (P08246 whole entry): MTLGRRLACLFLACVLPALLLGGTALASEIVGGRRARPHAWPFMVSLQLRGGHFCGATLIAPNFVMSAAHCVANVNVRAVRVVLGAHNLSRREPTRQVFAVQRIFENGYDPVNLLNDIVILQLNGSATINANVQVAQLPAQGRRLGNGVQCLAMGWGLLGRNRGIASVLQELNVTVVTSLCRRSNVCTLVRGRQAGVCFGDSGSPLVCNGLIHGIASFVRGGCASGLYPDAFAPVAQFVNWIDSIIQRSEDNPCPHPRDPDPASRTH
The assay can be described thus: Inhibitory constant for human neutrophil elastase.

Broadly, the Ki is the equilibrium dissociation constant of an inhibitor or competing ligand from its target. As for `CC[C@@H](C)[C@H](NCc1ccccc1)C(=O)N[C@@H](CCCCNC(=O)C12CC3CC(CC(C3)C1)C2)C(=O)N[C@@H](CS)C(=O)N[C@H](C(=O)O)C(C)C`, the affinity corresponds to a Ki of 270 µM.
